Results from patent US4174390A, “Antibiotic A-7413 and process for preparation thereof” (Eli Lilly and Company, priority 1978, dated 1979).
Values after ≈ are worked out from the molar mass of the structure shown.

Experiments:
Streptococcus species = test: agar-dilution tests, penicillin-G-resistant Group-D-Streptococcus strains; assay type: cell-based, Streptococcus sp.
Experimental: In Table VI are summarized the results of agar-dilution tests wherein A-7413 factor A was tested against a variety of Streptococcus species. These tests employed trypticase-soy agar plus blood, 10^-2 dilution of an overnight broth culture in 0.3% agar as an inoculum, giving approximately 5,000 bacteria per 7.5-mm of agar surface. Again, the results for vancomycin in the same test are reported for comparison. All strains tested are penicillin-G-resistant, Group-D-Streptococcus strains.

[1] = system: Staphylococcus aureus strains; test: standard agar-dilution tests (ICS method), S. aureus strains; assay type: cell-based
Experimental: A special advantage of the A-7413 compounds is their ability to inhibit organisms which are resistant to other antibiotics. In Table V are summarized the results of standard agar-dilution tests (using the ICS method) wherein A-7413 factor A was tested against a variety of Staphylococcus aureus strains. Results are given as the minimal inhibitory concentration (MIC) at which inhibition of the S. aureus strain occurred. The results obtained with the known antibiotic vancomycin in the same test are included for comparison.

With `CN[C@H](CC(C)C)C(=O)N[C@H]1C(=O)N[C@@H](CC(N)=O)C(=O)N[C@H]2C(=O)N[C@H]3C(=O)N[C@H](C(=O)N[C@H](C(=O)O)c4cc(O)cc(O)c4-c4cc3ccc4O)[C@H](O)c3ccc(c(Cl)c3)Oc3cc2cc(c3O[C@@H]2O[C@H](CO)[C@@H](O)[C@H](O)[C@H]2O[C@H]2C[C@](C)(N)[C@H](O)[C@H](C)O2)Oc2ccc(cc2Cl)[C@H]1O` [Vancomycin, vancomycin] the MIC (Streptococcus species; Streptococcus sp. strain 238, trypticase-soy agar plus blood) was 2 µg/mL, the MIC (Streptococcus species; Streptococcus sp. strain 282, trypticase-soy agar plus blood) was 2 µg/mL and the MIC (Streptococcus species; Streptococcus sp. strain 8043, trypticase-soy agar plus blood) was 4 µg/mL. It also gave an MIC (Streptococcus species; Streptococcus sp. strain 9901, trypticase-soy agar plus blood) of 4 µg/mL, an MIC (Streptococcus species; Streptococcus sp. strain 9913, trypticase-soy agar plus blood) of 2 µg/mL and an MIC (Streptococcus species; Streptococcus sp. strain 9933, trypticase-soy agar plus blood) of 8 µg/mL. The MIC (Streptococcus species; Streptococcus sp. strain 9960, trypticase-soy agar plus blood) was 4 µg/mL, the MIC (Streptococcus species; Streptococcus sp. strain 12253P, trypticase-soy agar plus blood) was 2 µg/mL and the MIC (Streptococcus species; Streptococcus sp. strain 55992, trypticase-soy agar plus blood) was 4 µg/mL. The MIC (Streptococcus species; Streptococcus sp. strain Mitis, trypticase-soy agar plus blood) was 4 µg/mL, the MIC (Streptococcus species; Streptococcus sp. strain Shrigley, trypticase-soy agar plus blood) was 4 µg/mL and the MIC ([1]; S. aureus strain 3055, penicillin G susceptible) was 1 µg/mL (≈ 0.69 µM). The MIC ([1]; S. aureus strain 3074, penicillin G resistant, methicillin susceptible) was 1 µg/mL (≈ 0.69 µM), the MIC ([1]; S. aureus strain 3123, penicillin G susceptible) was 1 µg/mL (≈ 0.69 µM) and the MIC ([1]; S. aureus strain 3125, penicillin G and methicillin resistant) was 1 µg/mL (≈ 0.69 µM). For the same compound, the MIC ([1]; S. aureus strain 3130, penicillin G and methicillin resistant) was 1 µg/mL (≈ 0.69 µM), the MIC ([1]; S. aureus strain 3131, penicillin G and methicillin resistant) was 1 µg/mL (≈ 0.69 µM) and the MIC ([1]; S. aureus strain 3132, penicillin G and methicillin resistant) was 1 µg/mL (≈ 0.69 µM). For the same compound, the MIC ([1]; S. aureus strain 3133, penicillin G and methicillin resistant) was 1 µg/mL (≈ 0.69 µM), the MIC ([1]; S. aureus strain 3134, penicillin G and methicillin resistant) was 1 µg/mL (≈ 0.69 µM) and the MIC ([1]; S. aureus strain 3135, penicillin G and methicillin resistant) was 0.5 µg/mL (≈ 0.345 µM). It also gave an MIC ([1]; S. aureus strain 3136, penicillin G and methicillin resistant) of 0.5 µg/mL (≈ 0.345 µM), an MIC ([1]; S. aureus strain 3137, penicillin G and methicillin resistant) of 1 µg/mL (≈ 0.69 µM) and an MIC ([1]; S. aureus strain 3138, penicillin G and methicillin resistant) of 1 µg/mL (≈ 0.69 µM). For the same compound, the MIC ([1]; S. aureus strain 3139, penicillin G and methicillin resistant) was 1 µg/mL (≈ 0.69 µM), the MIC ([1]; S. aureus strain 3140, penicillin G and methicillin resistant) was 0.5 µg/mL (≈ 0.345 µM) and the MIC ([1]; S. aureus strain H43, penicillin G resistant, methicillin susceptible) was 1 µg/mL (≈ 0.69 µM). The MIC ([1]; S. aureus strain H114, penicillin G resistant, methicillin susceptible) was 1 µg/mL (≈ 0.69 µM), the MIC ([1]; S. aureus strain H290, penicillin G susceptible) was 1 µg/mL (≈ 0.69 µM) and the MIC ([1]; S. aureus strain H541, penicillin G resistant, methicillin susceptible) was 1 µg/mL (≈ 0.69 µM).
